Results as given in patent EP2353599A1, “8-hydroxyquinolines as inhibitors of cathepsin B” (University of Ljubljana, priority 2010, dated 2011).
“Also recorded” adds a separate entry of the source.

How the values were obtained:
Cathepsin B [1] = target: T1, Cathepsin B (Homo sapiens, UniProt P07858); experiment: Cathepsin B endopeptidase activity, enzyme kinetics with substrate Z-RR-AMC; format: biochemical; conditions: endopeptidase activity, substrate Z-RR-AMC, pH 6.0, 37°C
Procedure: The effect of 8-hydroxyquinolines on cathepsin B enzymatic activity was assessed using enzyme kinetics. First, the effect of 8-hydroxyquinolines on cathepsin B endopeptidase activity was assessed using the cathepsin B specific endopeptidase substrate Z-RR-AMC. 5 µl of the Z-RR-AMC (final concentration 60, 180 and 360 µM) and 5 µl of respective compound at increasing concentrations were added to wells of a black microplate. 90 µl of human recombinant cathepsin B was then added to a final concentration of 0.4 nM in activation buffer (100 mM phosphate buffer, pH 6.0 with 0.1 % PEG, 5 mM DTT and 1.5 mM EDTA). All assay mixtures contained a constant amount of DMSO, i.e. 5 %. Formation of fluorescent degradation product was continuously monitored at 380 nm ± 20 nm excitation and […] ± 10 nm emission wavelengths on Tecan Safire^2™ at 37°C. Mechanism and the constant of inhibition (Ki) of cathepsin B endopeptidase activity were determined using the graphical method according to Cornish-Bowden (Cornish-Bowden A: A Simple Graphical Method for Determining the Inhibition Constants of Mixed, Uncompetitive and Non-Competitive Inhibitors. Biochem J 1974, 137:143-4.) and using the SigmaPlot® 11, Enzyme Kinetics Module™ 1.3. Table I. Results of testing the compounds according to Formula (I) on cathepsin B endopeptidase activity.

Cathepsin B [2] = target: T1, Cathepsin B; conditions: cited from earlier work; for less potent in vitro than parent inhibitor: esterified cell permeable derivatives versus E-64 and CA-074; for inhibit cathepsin B: background
MCF-10A neoT cells [3] = experiment: Extracellular DQ-collagen IV degradation, fluorescence intensity in medium; format: cell-based; conditions: 3 h, DQ-collagen IV 5 µg/ml
Procedure: Two experiments were set to differentiate between inhibition of intracellular and extracellular DQ-collagen IV degradation. Inhibition of extracellular DQ-collagen IV degradation was observed by monitoring the fluorescence intensity of degraded DQ-collagen IV in the medium in which MCF-10A neoT cells were grown. 5 × 10^4 MCF-10A neoT cells were plated into wells of a 96-well black plate and were allowed to attach over night. Cells were then incubated with 100 µl PBS containing 5-nitro-8-hydroxyquinoline, CA-074 or CA-074Me (10 µM) and DQ-collagen IV (5 µg/ml) for 3 h. Afterwards, the 80 µl of PBS was transferred into the empty wells and the fluorescence intensity was measured at 495 nm ± 5 nm excitation and 515 nm ± 5 nm emission wavelengths on Tecan Safire^2™. The experiment was performed in 8 parallels and DMSO was used as a control.

MCF-10A neoT cells [4] = experiment: Intracellular DQ-collagen IV degradation by flow cytometry; format: cell-based; conditions: 50 µM, shift in fluorescence intensity
Procedure: Inhibition of intracellular DQ-collagen IV degradation was observed by flow cytometry by a shift in fluorescence intensity. 5 × 10^4 MCF-10A neoT cells in complete medium were plated into the wells of a 24-well plate and allowed to attach over night. Afterwards, the medium was replaced with 500 µl of serum free medium with 5-nitro-8-hydroxyquinoline, CA-074 or CA-074Me (50 µM). After 2 h incubation the medium was again replaced with serum free medium containing inhibitors (50 µM) and DQ-collagen IV (5 µg/ml). DMSO was used as a control. For the experiment only viable cells were selected using propidium iodide. The measurements were performed on a FACS Calibur instrument (Beckton Dickinson, Inc.).

Cathepsin B [5] = target: T1, Cathepsin B; experiment: Reversibility by mass spectrometry (ESI-MS of cathepsin B after incubation and dialysis); format: binding; conditions: equimolar inhibitor, 1 h room temperature, dialysis
Procedure: Third, reversibility of 5-nitro-8-hydroxyquinoline was also checked with mass spectrometry. Cathepsin B (4.4 µM) was activated in the activation buffer for 5 min at 37 °C. Afterwards, an equimolar amount of the inhibitor was added to the enzyme and incubated for 1 h at room temperature. The mixture was dialyzed against water five times using Microcon Centrifugal Filter Devices YM-10 to avoid salt interferences and to remove unbound molecules of the test compound. Samples were then prepared by adding an equal volume of acetonitrile containing 0.1 % formic acid and analyzed with ESI-MS on an AutoSpec Q instrument. As a positive control CA-074 was used.

Cathepsin B [6] = target: T1, Cathepsin B; experiment: Reversibility with active site probe DCG-04 (labelling, SDS-PAGE, blot); format: binding; conditions: 0.1, 1, 10 and 50 µM inhibitor, 1 h, then 2 µM DCG-04
Text: Second, the reversibility of 5-nitro-8-hydroxyquinoline was also studied with the active site probe DCG-04. DCG-04 is a derivative of an irreversible epoxysuccinic inhibitor of cysteine proteases E-64 with an additional biotin moiety which enables detection of covalently modified proteases with labelling intensity correlating with enzymatic activity (Greenbaum D, Medzihradszky KF, Burlingame A, Bogyo M: Epoxide electrophiles as activity-dependent cysteine protease profiling and discovery tools. Chem Biol 2000, 7: 569-81.). 1 µg of recombinant cathepsin B in 50 mM Tris, pH 5.5 containing 1 mM DTT, 5 mM MgCl2 and 250 mM sucrose was incubated with 0.1, 1, 10 in 50 µM 5-nitro-8-hydroxyquinoline (diluted from 10 mM DMSO stocks) for 1 h at room temperature. Samples were then labelled with 2 µM DCG-04 for an additional h at room temperature. After boiling in reducing sample buffer for 10 min samples were analyzed by 12.5 % SDS-PAGE and transferred to a nitrocellulose membrane. The latter was then blocked with 0.5 % Tween 20 in PBS overnight at 4 °C and incubated with 1 µg/ml streptavidin-horseradish peroxidase in 0.2 % Tween 20 in PBS for 1 h at room temperature. The membrane was washed five times with 0.2 % Tween 20 in PBS and the spots on the membrane were visualized with 0.5 mg/ml 3,3'-diaminobenzidine and 0.0005 % (v/v) H2O2 in 50 mM Tris, pH 7.5. […]

In the case of `O=[N+]([O-])c1cc(CN2CCCC(O)C2)c(O)c2ncccc12` (racemic) [Compound 8, 7-((3-Hydroxypiperidin-1-yl)methyl)-5-nitro-8-hydroxyquinoline], the Ki (Cathepsin B [1]) is reported as 110 ± 3.1 µM.
For `CCCNC(=O)[C@H]1O[C@@H]1C(=O)N[C@H](C(=O)N1CCC[C@H]1C(=O)OC)[C@@H](C)CC` [CA-074Me], the “less potent in vitro than parent inhibitor” value (Cathepsin B [2]) is given as 100-1000 fold, the “inhibition of extracellular DQ-collagen IV degradation” value (MCF-10A neoT cells [3]; 10 µM) is given as 33.8% and the “inhibition of intracellular DQ-collagen IV degradation” value (MCF-10A neoT cells [4]) is given as “significantly inhibited”.
In the case of `CCCNC(=O)[C@H]1O[C@@H]1C(=O)N[C@H](C(=O)N1CCC[C@H]1C(=O)O)[C@@H](C)CC` [CA-074], the “change of mass of the enzyme” value (Cathepsin B [5]) is listed as 384 Da, the “inhibit cathepsin B” value (Cathepsin B [2]) is listed as “nanomolar range” and the “intensity of spots (DCG-04 labelling) versus DMSO control” value (Cathepsin B [6]) is listed as “concentration dependent loss of spot intensity”. For the same compound, the inhibition at 10 µM (MCF-10A neoT cells [3]; Homo sapiens, MCF-10A-neoT) was 31.1% and the “inhibition of intracellular DQ-collagen IV degradation” value (MCF-10A neoT cells [4]) was “only slightly inhibited; also recorded: did not”.
For `O=[N+]([O-])c1cc(CN2CCOCC2)c(O)c2ncccc12` [Compound 2, 7-(Morpholinomethyl)-5-nitro-8-hydroxyquinoline], the Ki (Cathepsin B [1]) was 119 ± 4.2 µM.
`O=[N+]([O-])c1cc(CN2CCCC2)c(O)c2ncccc12` [Compound 3, 7-(Pyrrolidinomethyl)-5-nitro-8-hydroxyquinoline] showed a Ki (Cathepsin B [1]) of 118 ± 3.1 µM.
Work on `CN1CCN(Cc2cc([N+](=O)[O-])c3cccnc3c2O)CC1` [Compound 4, 7-((4-Methylpiperazin-1-yl)methyl)-5-nitro-8-hydroxyquinoline] yielded a Ki (Cathepsin B [1]) of 75.6 ± 4 µM.
In the case of `O=[N+]([O-])c1cc(CN2CCC(O)CC2)c(O)c2ncccc12` [Compound 5, 7-((4-Hydroxypiperidin-1-yl)methyl)-5-nitro-8-hydroxyquinoline], the Ki (Cathepsin B [1]) is reported as 130 ± 3.4 µM.
For `CC1CCN(Cc2cc([N+](=O)[O-])c3cccnc3c2O)CC1` [Compound 6, 7-((4-Methypiperidin-1-yl)methyl)-5-nitro-8-hydroxyquinoline], the Ki (Cathepsin B [1]) was 130 ± 3.5 µM.
`O=C(O)C1CCN(Cc2cc([N+](=O)[O-])c3cccnc3c2O)CC1` [Compound 7, 7-((4-Carboxypiperidin-1-yl)methyl)-5-nitro-8-hydroxyquinoline] gave a Ki (Cathepsin B [1]) of 89 ± 3.3 µM.
For `CC(C)C[C@H](NC(=O)[C@H]1O[C@@H]1C(=O)O)C(=O)NCCCCN=C(N)N` [Compound E-64], the “inhibit cathepsin B” value (Cathepsin B [2]) is listed as “nanomolar range”.
For `CCOC(=O)[C@H]1O[C@@H]1C(=O)N[C@@H](CC(C)C)C(=O)NCCC(C)C` [Compound E-64d], the “less potent in vitro than parent inhibitor” value (Cathepsin B [2]) is listed as 100-1000 fold.
